Laboratory results as given in PMC6151569 (Molecules : A Journal of Synthetic Chemistry and Natural …, 2017).
Read-outs that look alike come from different tables or passages of the source.

Legend:
[1] = HLM stability test with LC-MS metabolite screening; assay type: in vitro ADME, human; conditions: for Degradation: compound remaining, AVERAGE: HLM; for biotransformation / degradation: after 4 h of incubation with HLM; for compound present / remaining unmetabolized: after incubation time of 4 h with HLM
Method: Pooled human liver microsomes (adult male & female) were purchased from Merck (Schnelldorf, Germany). These microsomes were characterized in protein and CYP content. All incubations (final total volume 1050 µL) were made in the presence of an NADPH-regenerating system, consisting of 5 mM Glucose-6-phosphate, 5 U/mL Glucose-6-phosphate dehydrogenase and 1 mM NADP^+. The substrate (100 μM), the NADPH regenerating system and 4 mM MgCl2 × 6 H2O in 0.1 M Tris buffer (pH 7.4 at 37 °C) were preincubated for 5 min in an incubator at 37 °C and 750 rpm. The incubation mix was split into 50 μL aliquots and the reaction was started by addition of the HLM. Thereby the microsomal protein content was standardized to 1 mg/mL. To follow the course of metabolism, the reaction tubes were quenched at selected time points (0, 10, 20, 30, 60, 120, 180 and 240 min) by adding 100 μL internal standard at a concentration of 22.5 µM in MeCN. The samples were vortexed for 30 s and centrifuged (19,800 relative centrifugal force/4 °C/10 min). The supernatant was directly used for LC-MS analysis (for detailed LC-MS conditions, see supplementary materials). […] In all incubations, a limit of 1% organic solvent was not exceeded. […]
Screening of Metabolites by LC-MS Analysis
Metabolite formation was analyzed with an Alliance 2695 Separations Module (Waters GmbH, Eschborn). Sam ples maintained at 4°C, the column tem perature was set to 40°C and inj ection volume was 10 μL. The chromatographic separation for analytes 1 and ML3404 was performed on a Phenomenex Synergi Max-RP column (150 x 4.6 mm; 5 μm); LN950 and 2 on a Phenomenex Synergi Polar-RP column (150 x 4.6 mm; 5 μm) with a precolumn of the same material, respectively. An isocratic gradient of 8.5 min with 30% solvent A (90% H2O, 10% ACN, 0.1% formic acid) and 70% solvent B (ACN, 0.1% formic acid) at a flow rate of 400 μL/min was used for LN950. 1 and ML3404 were chromatographically separated by a binary gradient of 11.25 min with the equal solvents as mentioned before at a flow rate of 400 μL/min. The initial composition of 10% B was held for 20 sec, followed by a linear gradient up to 85% B in 5.8 min, holding for 30 sec, immediately changing to 10% B and reequilibrating at the end. The detection was performed on a Micromass Quattro micro triple quadrupole mass spectrometer (Waters GmbH, Eschborn) using the electrospray-ionization in the positive-mode. Correspondent to the analyte the spray voltage was set to 3.0-4.0 kV. The heated capillary o perated at 250°C and the desolvation gas flow worked at 500 L/h.

[2] = target: T1, CYP1A2 (Homo sapiens, UniProt P05177); experiment: CYP inhibition (fluorimetric detection) assay; assay type: in vitro ADME; conditions: recombinant human CYP1A2, read-out: (%) inhibition of CYP 1A2
T1 construct: purchased Eurofins Panlabs Inc. (contract assay)
T1 sequence (P05177 1-516): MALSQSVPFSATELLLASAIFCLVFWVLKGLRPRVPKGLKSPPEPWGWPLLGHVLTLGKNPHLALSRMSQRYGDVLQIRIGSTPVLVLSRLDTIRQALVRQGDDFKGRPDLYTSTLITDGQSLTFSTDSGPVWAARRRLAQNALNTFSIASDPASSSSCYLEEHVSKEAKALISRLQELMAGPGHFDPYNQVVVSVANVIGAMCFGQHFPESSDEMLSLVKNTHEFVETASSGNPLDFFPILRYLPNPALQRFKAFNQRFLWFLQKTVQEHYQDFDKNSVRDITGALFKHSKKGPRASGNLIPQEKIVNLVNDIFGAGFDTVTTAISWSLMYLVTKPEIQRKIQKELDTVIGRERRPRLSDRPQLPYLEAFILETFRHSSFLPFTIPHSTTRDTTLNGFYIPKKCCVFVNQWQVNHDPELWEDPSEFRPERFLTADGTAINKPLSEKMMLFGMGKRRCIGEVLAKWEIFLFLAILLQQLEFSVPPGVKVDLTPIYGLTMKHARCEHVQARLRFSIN
Method: (§1) CYP inhibition (fluorimetric detection) assay was performed by Eurofins Panlabs Inc. (St. Charles, MO, USA) with human recombinant CYP enzyme and the appropriate CYP substrate.

[3] = target: T2, CYP2C19 (Homo sapiens, UniProt P33261); experiment: CYP inhibition (fluorimetric detection) assay; assay type: in vitro ADME; conditions: recombinant human CYP2C19, read-out: (%) inhibition of CYP 2C19
T2 construct: purchased Eurofins Panlabs Inc. (contract assay)
Method: as §1

[4] = target: T3, CYP2C9 (Homo sapiens, UniProt P11712); experiment: CYP inhibition (fluorimetric detection) assay; assay type: in vitro ADME; conditions: recombinant human CYP2C9, read-out: (%) inhibition of CYP 2C9
T3 construct: purchased Eurofins Panlabs Inc. (contract assay)
Method: as §1

[5] = target: T4, CYP2D6 (Homo sapiens, UniProt P10635); experiment: CYP inhibition (fluorimetric detection) assay; assay type: in vitro ADME; conditions: recombinant human CYP2D6, read-out: (%) inhibition of CYP 2D6
T4 construct: purchased Eurofins Panlabs Inc. (contract assay)
Method: as §1

[6] = target: T5, CYP3A4 (Homo sapiens, UniProt P08684); experiment: CYP inhibition (fluorimetric detection) assay; assay type: in vitro ADME; conditions: recombinant human CYP3A4, read-out: (%) inhibition of CYP 3A4
T5 construct: purchased Eurofins Panlabs Inc. (contract assay)
Method: as §1

[7] = target: T6, p38α MAP kinase (Homo sapiens, UniProt Q16539); conditions: read-out: FP Assay p38α Ki; cited from earlier work
[8] = test system: LPS-stimulated TNF-α release from human whole blood; conditions: cited from earlier work
[9] = test system: LPS-stimulated TNF-α release from human whole blood; experiment: HWB assay, inhibition of LPS-stimulated TNF-α release; assay type: cell-based; conditions: n = 2
Method: (§2) 2-Alkylsulfanyl imidazoles 1 and 2 were evaluated in an enzyme-linked immunosorbent assay (ELISA) as well as in a fluorescence polarization (FP)-based assay for their ability to inhibit and bind to the p38α MAP kinase. Moreover, the ability of the novel compounds to inhibit the LPS-stimulated TNF-α release in HWB was tested. In this ex vivo assay, the efficacy of the inhibitors is determined more specifically with regard to pharmacokinetic characteristics such as cellular permeability and plasma protein binding.

[10] = male and female human liver microsomes; cited from earlier work
[11] = mouse liver microsomes; cited from earlier work
[12] = rat liver microsomes; cited from earlier work
[13] = target: T6, p38α MAP kinase; conditions: metabolite of ML3403; cited from earlier work
[14] = target: T6, p38α MAP kinase; experiment: ELISA assay, inhibition of p38α MAP kinase; assay type: biochemical; conditions: for IC50: n = 3
Method: as §2

[15] = target: T6, p38α MAP kinase; experiment: fluorescence polarization (FP)-based binding assay; conditions: for increase in binding affinity toward p38α MAP kinase relative to the 2-alkylsulfanylimidazole counterpart: 1 vs ML3403, 2 vs LN950; for Ki: n = 3
Method: as §2

[16] = test system: CYP1A2, CYP2C9, CYP2C19, CYP2D6 and CYP3A4; experiment: CYP inhibition screening, statements on the whole panel; assay type: in vitro ADME, human; conditions: human
Method: as §1

[17] = test system: CYP isoforms 1A2, 2C9, 2C19, 2D6 and 3A4; experiment: as above; assay type: in vitro ADME, human
Method: as §1

T3 sequence (P11712 whole entry): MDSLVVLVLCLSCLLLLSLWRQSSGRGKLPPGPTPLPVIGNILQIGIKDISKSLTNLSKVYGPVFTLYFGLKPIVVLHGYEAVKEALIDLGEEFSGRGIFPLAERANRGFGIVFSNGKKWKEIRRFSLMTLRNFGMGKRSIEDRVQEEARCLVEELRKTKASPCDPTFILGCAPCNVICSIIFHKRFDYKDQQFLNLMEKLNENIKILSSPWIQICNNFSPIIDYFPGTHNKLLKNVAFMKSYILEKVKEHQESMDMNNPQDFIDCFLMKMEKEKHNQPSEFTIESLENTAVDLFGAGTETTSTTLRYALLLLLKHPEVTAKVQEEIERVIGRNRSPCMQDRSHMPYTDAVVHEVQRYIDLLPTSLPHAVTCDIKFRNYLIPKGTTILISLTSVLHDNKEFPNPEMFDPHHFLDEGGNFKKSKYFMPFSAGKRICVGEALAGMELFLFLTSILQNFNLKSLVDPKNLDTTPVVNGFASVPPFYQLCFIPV
T6 sequence (Q16539 whole entry): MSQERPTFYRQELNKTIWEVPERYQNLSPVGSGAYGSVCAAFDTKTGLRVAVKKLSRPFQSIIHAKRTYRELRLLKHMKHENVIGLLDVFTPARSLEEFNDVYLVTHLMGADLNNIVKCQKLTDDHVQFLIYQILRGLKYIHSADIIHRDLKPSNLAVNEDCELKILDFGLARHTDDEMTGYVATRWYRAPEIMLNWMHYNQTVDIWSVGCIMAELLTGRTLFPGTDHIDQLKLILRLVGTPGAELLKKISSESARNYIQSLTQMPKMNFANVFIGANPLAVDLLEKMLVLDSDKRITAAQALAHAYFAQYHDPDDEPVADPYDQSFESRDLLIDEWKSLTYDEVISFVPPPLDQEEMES
T2 sequence (P33261 whole entry): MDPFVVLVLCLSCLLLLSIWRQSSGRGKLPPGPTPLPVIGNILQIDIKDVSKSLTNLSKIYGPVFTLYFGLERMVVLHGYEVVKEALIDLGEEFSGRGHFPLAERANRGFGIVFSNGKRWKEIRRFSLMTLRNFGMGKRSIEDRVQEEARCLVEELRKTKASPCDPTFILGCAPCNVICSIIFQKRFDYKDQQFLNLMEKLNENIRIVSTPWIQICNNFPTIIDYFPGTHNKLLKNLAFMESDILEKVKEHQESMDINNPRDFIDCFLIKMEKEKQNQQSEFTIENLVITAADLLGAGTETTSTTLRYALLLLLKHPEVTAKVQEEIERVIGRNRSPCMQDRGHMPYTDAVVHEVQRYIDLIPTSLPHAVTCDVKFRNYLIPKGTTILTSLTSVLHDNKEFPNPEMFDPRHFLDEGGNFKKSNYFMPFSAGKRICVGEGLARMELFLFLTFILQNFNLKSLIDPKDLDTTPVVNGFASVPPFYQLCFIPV
T5 sequence (P08684 whole entry): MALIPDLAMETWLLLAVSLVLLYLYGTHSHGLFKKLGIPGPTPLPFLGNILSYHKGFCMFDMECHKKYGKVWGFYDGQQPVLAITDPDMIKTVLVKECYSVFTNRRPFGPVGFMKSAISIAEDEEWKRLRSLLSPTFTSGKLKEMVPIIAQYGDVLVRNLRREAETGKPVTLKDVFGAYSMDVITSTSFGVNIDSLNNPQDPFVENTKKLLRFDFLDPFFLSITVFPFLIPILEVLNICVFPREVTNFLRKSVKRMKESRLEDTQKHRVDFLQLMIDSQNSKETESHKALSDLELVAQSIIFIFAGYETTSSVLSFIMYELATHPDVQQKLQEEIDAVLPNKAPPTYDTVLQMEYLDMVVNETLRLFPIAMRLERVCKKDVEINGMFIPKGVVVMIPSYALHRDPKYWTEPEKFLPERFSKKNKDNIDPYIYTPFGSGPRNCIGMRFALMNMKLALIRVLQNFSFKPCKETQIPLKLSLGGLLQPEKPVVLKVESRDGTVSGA
T4 sequence (P10635 whole entry): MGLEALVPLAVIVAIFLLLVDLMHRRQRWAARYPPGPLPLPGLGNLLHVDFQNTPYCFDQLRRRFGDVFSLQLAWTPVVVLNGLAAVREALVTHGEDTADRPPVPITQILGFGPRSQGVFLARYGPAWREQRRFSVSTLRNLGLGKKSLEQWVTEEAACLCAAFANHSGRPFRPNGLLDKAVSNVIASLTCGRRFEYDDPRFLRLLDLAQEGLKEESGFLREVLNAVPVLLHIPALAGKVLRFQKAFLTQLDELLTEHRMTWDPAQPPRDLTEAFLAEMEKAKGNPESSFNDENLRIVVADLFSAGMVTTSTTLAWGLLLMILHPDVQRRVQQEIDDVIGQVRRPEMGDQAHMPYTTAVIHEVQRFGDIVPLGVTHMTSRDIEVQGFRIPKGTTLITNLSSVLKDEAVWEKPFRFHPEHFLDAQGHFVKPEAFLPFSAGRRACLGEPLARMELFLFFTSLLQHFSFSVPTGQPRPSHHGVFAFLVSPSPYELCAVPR

Structure (SMILES) | Degradation: compound remaining, AVERAGE ([1]; 0 min) | Degradation: compound remaining, AVERAGE ([1]; 10 min) | Degradation: compound remaining, AVERAGE ([1]; 20 min) | Degradation: compound remaining, AVERAGE ([1]; 30 min) | Degradation: compound remaining, AVERAGE ([1]; 60 min) | Degradation: compound remaining, AVERAGE ([1]; 120 min) | Degradation: compound remaining, AVERAGE ([1]; 180 min) | Degradation: compound remaining, AVERAGE ([1]; 240 min) | biotransformation / degradation [1] | inhibition at 10 µM [2] | inhibition at 10 µM [3] | inhibition at 10 µM [4] | inhibition at 10 µM [5] | inhibition at 10 µM [6] | IC50 [9] | compound present / remaining unmetabolized [1] | IC50 [14] | increase in binding affinity toward p38α MAP kinase relative to the 2-alkylsulfanylimidazole counterpart [15] | Ki [15] | inhibition at 10 µM [16] | further results
CC(C)C(C)Nc1cc(-c2nc(SCCO)[nH]c2-c2ccc(F)cc2)ccn1 (stereo not shown) [LN950, 2-((5-(4-fluorophenyl)-4-(2-((3-methylbutan-2-yl)amino)pyridin-4-yl)-1H-imidazol-2-yl)thio)ethan-1-ol, reference compound] | 100.00% | 86.86% | 77.42% | 61.96% | 51.99% | 37.23% | 32.10% | 28.49% | > 70% | 28% | 63% | 91.5% | 41.5% | 61% | – | – | – | – | – | – | Ki [7]: 4 ± 1 nM; IC50 ([8]; LPS-stimulated human whole blood, read-out: HWB Assay TNF-α IC50): 37 ± 4 nM
CSc1nc(-c2ccnc(NC(C)c3ccccc3)c2)c(-c2ccc(F)cc2)[nH]1 (stereo not shown) [ML3403, 4-(5-(4-fluorophenyl)-2-(methylthio)-1H-imidazol-4-yl)-N-(1-phenylethyl)pyridin-2-amine, reference compound] | 100.00% | 80.59% | 68.97% | 57.93% | 42.80% | 31.72% | 24.06% | 16.25% | – | – | – | – | – | – | 2980 ± 874 nM | less than 20% | – | – | – | – | half-life at 100 µM ([1]; both sexes, human, pooled human liver microsomes, pH 7.4, pooled HLM, this study, read-out: in vitro half-life (converted)): 51.6 min; IC50 ([8]; printed in Figure 1, known inhibitors, read-out: IC50 (TNF-α)): 2700 nM; in vitro half-life [10]: 32.7 min; in vitro half-life [11]: 5.9 min; in vitro half-life [12]: 11.4 min
CC(Nc1cc(-c2nc([S+](C)[O-])[nH]c2-c2ccc(F)cc2)ccn1)c1ccccc1 (stereo not shown) [ML3603] | – | – | – | – | – | – | – | – | – | – | – | – | – | – | – | – | – | – | – | – | activity on p38α MAP kinase [13]: active
CCc1nc(-c2ccc(F)cc2)c(-c2ccnc(NC(C)c3ccccc3)c2)[nH]1 (stereo not shown) [compound 1, 4-(2-Ethyl-4-(4-fluorophenyl)-1H-imidazol-5-yl)-N-(1-phenylethyl)pyridin-2-amine] | 100.00% | 92.72% | 89.75% | 87.96% | 86.27% | 83.65% | 80.90% | 79.75% | 20% | 85.6% | 71% | 85.1% | 90.2% | 97.6% | 2539 ± 20 nM | up to 80% | 25 ± 2 nM | 4 fold | 11 ± 3 nM | > 70% | –
CC(C)C(C)Nc1cc(-c2[nH]c(CCCO)nc2-c2ccc(F)cc2)ccn1 (stereo not shown) [compound 2, 3-(4-(4-Fluorophenyl)-5-(2-((3-methylbutan-2-yl)amino)pyridin-4-yl)-1H-imidazol-2-yl)propan-1-ol] | 100.00% | 97.15% | 93.57% | 91.84% | 91.99% | 91.57% | 90.42% | 89.73% | 10% | 69.4% | 83.6% | 61.9% | 78.8% | 92.1% | 32 ± 1 nM | – | 11 ± 5 nM | 4 fold | 1 ± 0.2 nM | > 60% | more active than reference compound ML3403 ([14]; p38α MAP kinase): 3.6 fold; CYP test concentration of 10 µM relative to the IC50 value in the kinase activity assay [17]: ~1000 fold
